Test results reported in article PMC6778101 (Nature Communications, 2019).
Entries after “also recorded” stand apart in the source; their conditions may differ. Ends that are not written are not given here. Peptide text beside a SMILES is read from it.

Columns and labels:
E. coli K-12 BW25113 = assay: Laboratory evolution of resistance, MIC fold change of adapted lines; assay type: cell-based, Escherichia coli; settings: for MIC fold change following 20 transfers: Escherichia coli K-12 BW25113; for MIC fold change after the evolution: MIC evolved / MIC control, 20 transfers, ~120 generations
Excerpt: Our first goal was to study resistance evolution against a set of AMPs and antibiotics. We have followed established protocols with minor modifications to evolve bacterial populations under controlled laboratory conditions[19],[20]. The applied protocol aims to maximize the level of drug resistance in the evolving populations achieved during a fixed time period. We have initiated a laboratory evolution experiment, starting with a single clone of Escherichia coli K-12 BW25113 (abbreviated as E. coli K-12 BW25113). Parallel evolving populations were exposed to increasing concentrations of one of 14 AMPs (Supplementary Table 1). Peptides were chosen based on the following criteria: diverse sources (synthetic/natural), different putative mechanisms of action, structural diversity, and clinical relevance. Another set of populations were exposed to one of 12 clinically relevant antibiotics (Supplementary Table 2), using the same protocol. Accordingly, we have propagated 10 independent populations in the presence of each AMP or antibiotic for ∼120 generations. We isolated a single, representative clone from each population, resulting in 140 AMP-adapted lines and 120 antibiotic-adapted lines. Throughout the paper, we compare the level of resistance in the evolved lines to the corresponding wild-type strain by measuring changes in the drugs’ minimum inhibitory concentrations (MIC).
(§1) The evolutionary protocol was designed to avoid population extinction and to ensure that populations with the highest level of resistance were propagated further. Starting with a subinhibitory drug concentration (Supplementary Data 8), resulting in ~50% growth inhibition, 10 parallel populations per drug were allowed to grow in Minimal Salts medium for 72 h and 300 r.p.m. E. coli K-12 BW25113 and E. coli mutD5 populations were incubated at 30 °C, while E. coli ATCC 25922, S. enterica LT2, K. pneumonia ATCC 10031, and A. baumannii ATCC 17978 were incubated at 37 °C. […] Prior to each transfer, cell growth was monitored by measuring the optical density at 600 nm (OD600 value, Biotek Synergy 2 microplate reader). Only populations with the highest drug concentration (and reaching OD600 > 0.2) were selected for further evolution. A chess-board layout was used on the plate to monitor potential cross-contamination events. […] E. coli mutD5 was adapted to TPII, also in 10 parallel evolving populations.
(§2) MICs were determined using a standard serial broth dilution technique. Briefly, 11-step serial dilutions were prepared in 96-well microtiter plates with three replicates per strain and antimicrobial compound. Each experiment was repeated at least twice. 5 × 10^5 cells/mL were inoculated into each well, and the plates were incubated at 30 °C in case of E. coli K-12 BW25113, and its antibiotic and AMP-adapted lines, or 37 °C in case of the other bacterial species. Plates were shaken at 300 r.p.m. during incubation for 24 and 18 h, respectively. Cell growth was monitored by measuring the optical density (OD600 value, Biotek Synergy 2 microplate reader was used for this purpose). […] Relative MIC was calculated as follows: MICrelative = MICevolved/MICcontrol.

A. baumannii ATCC 17978 = assay: as above; assay type: cell-based; settings: Acinetobacter baumannii ATCC 17978; parallel line 1 of 10
Excerpt: (§3) The tested pathogens initially sensitive to the AMPs and the antibiotics included Escherichia coli (ATCC® 25922™) (abbreviated as E. coli ATCC 25922), Salmonella enterica subsp. enterica serovar Typhimurium LT2 (abbreviated as S. enterica LT2), Klebsiella pneumoniae subsp. pneumoniae (Schroeter) Trevisan (ATCC® 10031™) (abbreviated as K. pneumoniae ATCC 10031) and Acinetobacter baumannii Bouvet and Grimont (ATCC® 17978™) (abbreviated as A. baumannii ATCC 17978).
as §1
(§4) MICs were determined using a standard serial broth dilution technique. Briefly, 11-step serial dilutions were prepared in 96-well microtiter plates with three replicates per strain and antimicrobial compound. Each experiment was repeated at least twice. […] Cell growth was monitored by measuring the optical density (OD600 value, Biotek Synergy 2 microplate reader was used for this purpose). […] Relative MIC was calculated as follows: MICrelative = MICevolved/MICcontrol.

E. coli ATCC 25922 = assay: as above; assay type: cell-based; settings: Escherichia coli ATCC 25922; parallel line 1 of 10
Excerpt: as §3, §1, §4

K. pneumoniae ATCC 10031 = assay: as above; assay type: cell-based; settings: Klebsiella pneumoniae ATCC 10031; parallel line 1 of 10
Excerpt: as §3, §1, §4

[1] = test system: E. coli ATCC 25922, S. enterica LT2, K. pneumoniae ATCC 10031, A. baumannii ATCC 17978; assay: Laboratory evolution in pathogenic bacteria, statements for all four pathogens together; assay type: cell-based; settings: all four pathogenic species
Excerpt: as §3, §1, §4

[2] = test system: E. coli K-12 BW25113 bearing the metagenomic plasmid library; assay: Functional metagenomic screen of a soil library, gradient plate selection; assay type: cell-based, Escherichia coli
E. coli mutD5 = assay: Laboratory evolution of resistance in mutator strain, MIC fold change; assay type: cell-based, Escherichia coli; settings: for MIC fold change after the evolution: mutD5 mutator strain (*)
Excerpt: Unless otherwise indicated, we used E. coli K-12 BW25113 in all high-throughput experiments. To investigate the impact of mutation rate on evolution of AMP resistance, we initiated laboratory evolution with a mutator strain E. coli mutD5 that carries mutations in the dnaQ gene (L73W and A164V).
as §1, §2

Human red blood cells = settings: previous work; cited from earlier work
Excerpt: Finally, our work identifies that TPII and CP1 are promising candidates for future therapeutic considerations, for the following reasons. They are active against a wide range of bacterial pathogens with a relatively high activity/toxicity (ATI) index. We note however, that existing data on the toxicity of the tachyplesin antimicrobial family are controversial[48],[59]–[61]. […] Furthermore, evolution of resistance against these AMPs is improbable in E. coli. We propos ...

[3] = parallel line 1 of 10 adapted to the agent

## NC[C@H]1O[C@H](O[C@H]2[C@H](O)[C@@H](O[C@H]3O[C@H](CO)[C@@H](O)[C@H](N)[C@H]3O)[C@H](N)C[C@@H]2N)[C@H](O)[C@@H](O)[C@@H]1O [KAN, Kanamycin]
E. coli K-12 BW25113; [3]
  MIC fold change following 20 transfers: 256 fold
E. coli K-12 BW25113; parallel line 2 of 10 adapted to the agent
  MIC fold change following 20 transfers: 256 fold
E. coli K-12 BW25113; parallel line 3 of 10 adapted to the agent
  MIC fold change following 20 transfers: 177 fold
E. coli K-12 BW25113; parallel line 4 of 10 adapted to the agent
  MIC fold change following 20 transfers: 177 fold
E. coli K-12 BW25113; parallel line 5 of 10 adapted to the agent
  MIC fold change following 20 transfers: 93 fold
E. coli K-12 BW25113; parallel line 6 of 10 adapted to the agent
  MIC fold change following 20 transfers: 256 fold
E. coli K-12 BW25113; parallel line 7 of 10 adapted to the agent
  MIC fold change following 20 transfers: 256 fold
E. coli K-12 BW25113; parallel line 8 of 10 adapted to the agent
  MIC fold change following 20 transfers: 49 fold
E. coli K-12 BW25113; parallel line 9 of 10 adapted to the agent
  MIC fold change following 20 transfers: 177 fold
E. coli K-12 BW25113; parallel line 10 of 10 adapted to the agent
  MIC fold change following 20 transfers: 93 fold
E. coli K-12 BW25113; parallel-evolved line 1
  MIC fold change after the evolution: 256
E. coli K-12 BW25113; parallel-evolved line 2
  MIC fold change after the evolution: 256
E. coli K-12 BW25113; parallel-evolved line 3
  MIC fold change after the evolution: 177
E. coli K-12 BW25113; parallel-evolved line 4
  MIC fold change after the evolution: 177
E. coli K-12 BW25113; parallel-evolved line 5
  MIC fold change after the evolution: 93
E. coli K-12 BW25113; parallel-evolved line 6
  MIC fold change after the evolution: 256
E. coli K-12 BW25113; parallel-evolved line 7
  MIC fold change after the evolution: 256
E. coli K-12 BW25113; parallel-evolved line 8
  MIC fold change after the evolution: 49
E. coli K-12 BW25113; parallel-evolved line 9
  MIC fold change after the evolution: 177
E. coli K-12 BW25113; parallel-evolved line 10
  MIC fold change after the evolution: 93

## CC[C@H](C)[C@@H]1NC(=O)CNC(=O)[C@H](CCCNC(=N)N)NC(=O)[C@H](Cc2ccc(O)cc2)NC(=O)[C@@H]2CSSC[C@H](NC1=O)C(=O)N[C@@H](Cc1ccc(O)cc1)C(=O)N[C@@H](CCCNC(=N)N)C(=O)N[C@@H](CCCCN)C(=O)N[C@H](C(=O)N[C@@H](CCCNC(=N)N)C(N)=O)CSSC[C@H](NC(=O)[C@H](Cc1c[nH]c3ccccc13)NC(=O)[C@@H](N)CCCNC(=N)N)C(=O)N[C@@H](Cc1ccccc1)C(=O)N[C@@H](CCCNC(=N)N)C(=O)N[C@@H](C(C)C)C(=O)N2 [TPII, tachyplesin II] (HELM PEPTIDE1{R.W.C.F.R.V.C.Y.R.G.I.C.Y.R.K.C.R.[am]}$PEPTIDE1,PEPTIDE1,3:R3-16:R3|PEPTIDE1,PEPTIDE1,7:R3-12:R3$$$V2.0; N-terminus and C-terminus assumed; bridges inferred)
A. baumannii ATCC 17978
  MIC fold change following 20 transfers: 4.3 fold
E. coli ATCC 25922
  MIC fold change following 20 transfers: 4.8 fold
K. pneumoniae ATCC 10031
  MIC fold change following 20 transfers: 5.6 fold
[1]
  resistance after laboratory evolution in pathogens (in words): very low levels
E. coli K-12 BW25113; [3]
  MIC fold change following 20 transfers: 1.0 fold
E. coli K-12 BW25113; average of MIC fold change of the 10 independently adapted populations
  average MIC fold change after the evolution: 1.000
E. coli K-12 BW25113; parallel-evolved line 1
  MIC fold change after the evolution: 1
E. coli K-12 BW25113; parallel-evolved line 2
  MIC fold change after the evolution: 1
E. coli K-12 BW25113; parallel-evolved line 3
  MIC fold change after the evolution: 1
E. coli K-12 BW25113; parallel-evolved line 4
  MIC fold change after the evolution: 1
E. coli K-12 BW25113; parallel-evolved line 5
  MIC fold change after the evolution: 1
E. coli K-12 BW25113; parallel-evolved line 6
  MIC fold change after the evolution: 1
E. coli K-12 BW25113; parallel-evolved line 7
  MIC fold change after the evolution: 1
E. coli K-12 BW25113; parallel-evolved line 8
  MIC fold change after the evolution: 1
E. coli K-12 BW25113; parallel-evolved line 9
  MIC fold change after the evolution: 1
E. coli K-12 BW25113; parallel-evolved line 10
  MIC fold change after the evolution: 1
E. coli K-12 BW25113; ~120 generations under increasing drug concentration
  resistance in evolved lines after laboratory evolution (in words): failed to detect any resistance
[2]
  resistant clones / resistance-conferring DNA segments from the soil metagenomic library (in words): failed to find DNA segments that would provide resistance
[2]; soil metagenomic library, 1.5–5 kb fragments, gradient plate, 30 °C, 24 h
  Number of resistant contig: 0
E. coli mutD5; 10 laboratory evolved E. coli K-12 mutD5 populations
  resistance in evolved mutator populations (in words): none of the 10 laboratory evolved mutator E. coli K-12 mutD5 populations displayed resistance; also recorded: failed to develop resistance
E. coli mutD5; Escherichia coli mutD5 mutator strain, parallel line 1 of 10
  MIC fold change following 20 transfers: 1.4 fold
E. coli mutD5; parallel-evolved line 1
  MIC fold change after the evolution: 1
E. coli mutD5; parallel-evolved line 2
  MIC fold change after the evolution: 1
E. coli mutD5; parallel-evolved line 3
  MIC fold change after the evolution: 1
E. coli mutD5; parallel-evolved line 4
  MIC fold change after the evolution: 1
E. coli mutD5; parallel-evolved line 5
  MIC fold change after the evolution: 1
E. coli mutD5; parallel-evolved line 6
  MIC fold change after the evolution: 1
E. coli mutD5; parallel-evolved line 7
  MIC fold change after the evolution: 1
E. coli mutD5; parallel-evolved line 8
  MIC fold change after the evolution: 1
E. coli mutD5; parallel-evolved line 9
  MIC fold change after the evolution: 1
E. coli mutD5; parallel-evolved line 10
  MIC fold change after the evolution: 1

## SWLSKTAKKLENSAKKRISEGIAIAIQGGPR [CP1, Cecropin P1]
Human red blood cells
  toxicity or haemolytic activity (in words): negligible toxicity or haemolytic activity
